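Results reflect a 48-hour exposure of cells in 96-well plates to compound at five concentrations. At the GI50, growth is halved. TGI: total growth inhibition.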
Columns and labels:
Test in all cases: inhibition of tumour cell growth, NCI panel, 48 h
786-0 renal = system: 786-0 renal
A498 renal = system: A498 renal
A549 NSCLC = system: A549 NSCLC
ACHN renal = system: ACHN renal
BT-549 breast = system: BT-549 breast
CAKI-1 renal = system: CAKI-1 renal
CCRF-CEM leukemia = system: CCRF-CEM leukemia
COLO 205 colon = system: COLO 205 colon
DU-145 prostate = system: DU-145 prostate
EKVX NSCLC = system: EKVX NSCLC
HCC-2998 colon = system: HCC-2998 colon
HCT-116 colon = system: HCT-116 colon
HCT-15 colon = system: HCT-15 colon
HL-60(TB) leukemia = system: HL-60(TB) leukemia
HOP-62 NSCLC = system: HOP-62 NSCLC
HOP-92 NSCLC = system: HOP-92 NSCLC
HS 578T breast = system: HS 578T breast
HT29 colon = system: HT29 colon
IGROV1 ovarian = system: IGROV1 ovarian
K-562 leukemia = system: K-562 leukemia
KM12 colon = system: KM12 colon
LOX IMVI melanoma = system: LOX IMVI melanoma
M14 melanoma = system: M14 melanoma
MALME-3M melanoma = system: MALME-3M melanoma
MCF7 breast = system: MCF7 breast
MDA-MB-231 breast = system: MDA-MB-231 breast
MDA-MB-435 = system: MDA-MB-435
MOLT-4 leukemia = system: MOLT-4 leukemia

## COc1cc(C2=C(c3ccccc3)COC2=O)cc(OC)c1OC
786-0 renal
  GI50: 4.3 µM
  TGI: > 100 µM
A498 renal
  GI50: 6.87 µM
  TGI: > 66.1 µM
A549 NSCLC
  GI50: 6.78 µM
  TGI: > 58.7 µM
ACHN renal
  GI50: > 43.5 µM
  TGI: > 100 µM
BT-549 breast
  GI50: 33.9 µM
  TGI: > 100 µM
CAKI-1 renal
  GI50: 0.585 µM
  TGI: > 27.7 µM
CCRF-CEM leukemia
  GI50: 1.38 µM
  TGI: > 100 µM
COLO 205 colon
  GI50: 0.834 µM
  TGI: 6.69 µM
DU-145 prostate
  GI50: 4.68 µM
  TGI: > 100 µM
EKVX NSCLC
  GI50: > 31.8 µM
  TGI: > 100 µM
HCC-2998 colon
  GI50: 1.27 µM
  TGI: 5.97 µM
HCT-116 colon
  GI50: 2.29 µM
  TGI: > 38.1 µM
HCT-15 colon
  GI50: 2.96 µM
  TGI: > 100 µM
HL-60(TB) leukemia
  GI50: 0.409 µM
  TGI: 2.14 µM
HOP-62 NSCLC
  GI50: 2.07 µM
  TGI: > 100 µM
HOP-92 NSCLC
  GI50: 13.6 µM
  TGI: > 100 µM
HS 578T breast
  GI50: 5.61 µM
  TGI: > 90 µM
HT29 colon
  GI50: 3.13 µM
  TGI: 97.5 µM
IGROV1 ovarian
  GI50: 5.82 µM
  TGI: > 56.5 µM
K-562 leukemia
  GI50: 0.289 µM
  TGI: > 100 µM
KM12 colon
  GI50: 0.593 µM
  TGI: > 31.7 µM
LOX IMVI melanoma
  GI50: 18.6 µM
  TGI: > 100 µM
M14 melanoma
  GI50: 1.79 µM
  TGI: > 27.7 µM
MALME-3M melanoma
  GI50: 0.439 µM
  TGI: > 100 µM
MCF7 breast
  GI50: 0.537 µM
  TGI: > 100 µM
MDA-MB-231 breast
  GI50: 3.2 µM
  TGI: > 100 µM
MDA-MB-435
  GI50: 0.168 µM
  TGI: 0.645 µM
MOLT-4 leukemia
  GI50: 4.18 µM
  TGI: > 100 µM
